Results reported in patent US3993749A, “Rapamycin and process of preparation” (Ayerst McKenna and Harrison Ltd., priority 1975, dated 1976).
Converted amounts (≈) assume the structure as drawn.

Legend:
[1] = irritation, intradermal injection into a rabbit's ear; format: in vivo; details: 1% suspension (0.2 ml) in water containing […] polysorbate 80, intradermal
Description: (§1) A 1% suspension (0.2 ml) of rapamycin in water containing 1.5% polysorbate 80 (Tween 80), when injected intradermally into a rabbit's ear caused no irritation. Similarly, two drops of a 0.5% suspension applied to a rabbit's eye caused no irritation.

[2] = LD50 in mice; details: mouse, in vivo
[3] = tested on: M. gypseum; assay: minimum inhibitory concentration of rapamycin; format: cell-based, Microsporum gypseum; details: Nannizzia gypsea
Description: (§2) The antifungal activity of this compound is demonstrable in standard tests used for this purpose, for example, in the tests described in "Antiseptics, Disinfectants, Fungicides and Sterilization", G. F. Reddish, Ed., 2nd ed., Lea and Febiger, Philadelphia, 1957 or by D. C. Grove and W. A. Randall in "Assay Methods of Antibiotics", Med. Encycl. Inc., New York 1955.
(§3) h. the minimum inhibitory concentration of rapamycin against various microorganism is listed below: […]

[4] = tested on: C. albicans ATCC 11651; assay: protection studies in mice infected with C. albicans; format: in vivo
Description: In protection studies, mice were infected by intravenous injection of C. albicans ATCC 11651. […] At this dose 50% of the mice were protected.

[5] = solubility; format: physicochemical
[6] = tested on: C. pseudtropicalis; assay: minimum inhibitory concentration of rapamycin; format: cell-based; details: read-out: minimum inhibitory concentration
Description: as §2, §3

[7] = tested on: C. morrera; assay: minimum inhibitory concentration of rapamycin; format: cell-based
Description: as §2, §3

[8] = tested on: C. catenulata; assay: minimum inhibitory concentration of rapamycin; format: cell-based
Description: as §2, §3

[9] = tested on: C. tropicalis; assay: minimum inhibitory concentration of rapamycin; format: cell-based; details: Candida tropicalis
Description: as §2, §3

[10] = tested on: C. lipolytica; assay: minimum inhibitory concentration of rapamycin; format: cell-based; details: Yarrowia lipolytica
Description: as §2, §3

[11] = tested on: Candida albicans (5 strains); assay: minimum inhibitory concentration of rapamycin; format: cell-based; details: against Candida albicans
Description: as §2, §3

[12] = tested on: C. intermedia; assay: minimum inhibitory concentration of rapamycin; format: cell-based; details: Sungouiella intermedia
Description: as §2, §3

[13] = tested on: C. stellatoidea; assay: minimum inhibitory concentration of rapamycin; format: cell-based; details: Candida albicans
Description: as §2, §3

[14] = tested on: C. parapsilosis; assay: minimum inhibitory concentration of rapamycin; format: cell-based; details: Lodderomyces parapsilosis
Description: as §2, §3

[15] = tested on: T. mentagrophytes; assay: minimum inhibitory concentration of rapamycin; format: cell-based; details: Trichophyton mentagrophytes, read-out: minimum inhibitory concentration
Description: as §2, §3

[16] = irritation, drops applied to a rabbit's eye; format: in vivo; details: two drops of a 0.5% suspension
Description: as §1

[17] = tested on: Candida strains; details: prior art; cited from earlier work
[18] = tested on: gram positive organisms; details: prior art; cited from earlier work
[19] = tested on: tumor; details: prior art; cited from earlier work
[20] = tested on: bacteria; details: prior art; cited from earlier work
[21] = tested on: fungi; details: prior art; cited from earlier work
[22] = tested on: C. albicans; details: prior art; cited from earlier work
[23] = prior art, route not given; cited from earlier work

CO[C@H]1C[C@@H]2CC[C@@H](C)[C@@](O)(O2)C(=O)C(=O)N2CCCC[C@H]2C(=O)O[C@H]([C@H](C)C[C@@H]2CC[C@@H](O)[C@H](OC)C2)CC(=O)[C@H](C)/C=C(\C)[C@@H](O)[C@@H](OC)C(=O)[C@H](C)C[C@H](C)/C=C/C=C/C=C/1C [Rapamycin, rapamycin]
irritation [1]: no irritation
LD50 ([2]; ip): 597 ± 28.1 mg/kg
LD50 ([2]; po): > 2500 mg/kg
MIC [3]: 12.5 µg/mL (≈ 13.7 µM)
mice survived ([4]; 10 mg/kg orally): 4 out of 10
mice protected ([4]; 10 mg/kg s.c. at 1, 4 and 24 hours after i.v. infection): 50%
protection ([4]; 25 mg/kg orally): complete protection
protection ([4]; 25 mg/kg s.c.): complete protection
solubility ([5]; in ether, chloroform, acetone, methanol and dimethylformamide): soluble
solubility ([5]; in hexane and petroleum ether): very sparingly soluble
solubility ([5]; in water): substantially insoluble
MIC [6]: > 5 µg/mL
MIC [7]: < 0.1 µg/mL
MIC [8]: < 0.1 µg/mL
MIC [9]: 0.1 µg/mL (≈ 0.109 µM)
MIC [10]: 2.5 µg/mL (≈ 2.73 µM)
inhibitory activity [11]: especially pronounced
MIC [12]: < 0.1 µg/mL
MIC [13]: < 0.1 µg/mL
MIC [14]: < 0.1 µg/mL
MIC [15]: > 1000 µg/mL
irritation [16]: no irritation

Trienine
activity against Candida strains [17]: only marginal activity
activity against gram positive organisms [18]: marked activity
antitumor activity [19]: antitumor activity

Resistaphylin
antibacterial activity [20]: antibacterial
antifungal activity [21]: without any antifungal activity

Proticin
antibacterial activity [20]: antibacterial
antifungal activity [21]: without any antifungal activity

Mycotrienin
MIC against C. albicans [22]: 5 µg/mL
antifungal activity [21]: low antifungal activity
LD50 in mice [23]: 15 mg/kg
